Source: patent US6525059B1, “Substituted pyrazoles as p38 kinase inhibitors” (G. D. Searle & Company, priority 1998, dated 2003)
Where a name gives a salt, the structure may show the parent alone.

melting point	SMILES
204 to 206 °C	Fc1ccc(-c2[nH]nc(N3CCNCC3)c2-c2ccncc2)cc1 (as salt: hydrochloride) [Example A-172, 1-[5-(4-fluorophenyl)-4-(4-pyridinyl)-1H-pyrazol-3-yl]piperazine trihydrochloride]
260 to 261 °C	CN1CCC(N(C)c2[nH]nc(-c3ccc(Cl)cc3)c2-c2ccncc2)CC1 (hydrate or solvate)
262 to 264 °C	CN1CCN(c2[nH]nc(-c3ccc(F)cc3)c2-c2ccncc2)CC1 (hydrate or solvate) [Example A-317, 1-[5-(4-fluorophenyl)-4-(4-pyridinyl)-1H-pyrazol-3-yl]-4-methylpiperazine, dihydrate]
245 to 248 °C	CS(=O)(=O)N1CCN(c2[nH]nc(-c3ccc(Cl)cc3)c2-c2ccncc2)CC1 (hydrate or solvate) [Example A-320, 1-[5-(4-chlorophenyl)-4-(4-pyridinyl)-1H-pyrazol-3-yl]-4-(methylsulfonyl)piperazine, monohydrate]
88.6 °C	Cc1nn(C)c(-c2ccc(Cl)cc2)c1-c1ccncc1 [Example A-32, 4-[5-(4-chlorophenyl)-1,3-dimethyl-1H-pyrazol-4-yl]pyridine]
260 to 261 °C	CCN(CC)c1n[nH]c(-c2ccc(Cl)cc2)c1-c1ccncc1 [Example A-163, 5-(4-chlorophenyl)-N,N-diethyl-4-(4-pyridinyl)-1H-pyrazol-3-amine]
243 to 244 °C	CC(C)(C)OC(=O)N1CCN(c2n[nH]c(-c3ccc(F)cc3)c2-c2ccncc2)CC1 [Example A-171, 1,1-dimethylethyl 4-[5-(4-fluorophenyl)-4-(4-pyridinyl)-1H-pyrazol-3-yl]-1-piperazinecarboxylate]
236.67 °C	Cc1n[nH]c(-c2c(F)cccc2F)c1-c1ccncc1 [Example A-184, 4-[3-(2,6-difluorophenyl)-5-methyl-1H-pyrazol-4-yl]pyridine]
189.25 °C	CCc1cccc(-c2[nH]nc(C)c2-c2ccncc2)c1 [Example A-185, 4-[3-(3-ethylphenyl)-5-methyl-1H-pyrazol-4-yl]pyridine]
192.66 °C	CCc1cccc(-c2[nH]nc(CC)c2-c2ccncc2)c1 [Example A-187, 4-[3-ethyl-5-(3-ethylphenyl)-1H-pyrazol-4-yl]pyridine]
281.94 °C	Fc1ccc(-c2[nH]nc(C(F)(F)F)c2-c2ccncc2)cc1 [Example A-190]
129 to 130 °C	Cn1nc(-c2ccc(F)cc2)c(-c2ccncc2)c1C1CC1 [Example A-191]
155 to 157 °C	OCCn1nc(-c2ccc(F)cc2)c(-c2ccncc2)c1C1CC1 [Example A-192, 5-cyclopropyl-3-(4-fluorophenyl)-4-(4-pyridinyl)-1H-pyrazole-1-ethanol]
168 to 169 °C	COc1cc(-c2c(-c3ccncc3)c(-c3ccc(F)cc3)nn2CCO)ccn1 [Example A-193, 3-(4-fluorophenyl)-5-(2-methoxy-4-pyridinyl)-4-(4-pyridinyl)-1H-pyrazole-1-ethanol]
250 to 251 °C	O=c1cc(-c2c(-c3ccncc3)c(-c3ccc(F)cc3)nn2CCO)cc[nH]1 [Example A-194, 4-[3-(4-fluorophenyl)-1-(2-hydroxyethyl)-4-(4-pyridinyl)-1H-pyrazol-5-yl]-2(1H)-pyridinone]
220 to 221 °C	CC(=O)n1ccc(-c2c(-c3ccncc3)c(-c3ccc(F)cc3)nn2CCO)cc1=O [Example A-195, 1-acetyl-4-[3-(4-fluorophenyl)-1-(2-hydroxyethyl)-4-(4-pyridinyl)-1H-pyrazol-5-yl]-2(1H)-pyridinone]
253 to 255 °C	O=C(O)C1CC1c1c(-c2ccncc2)c(-c2ccc(F)cc2)nn1CCO (stereo not shown) [Example A-197, 2-[3-(4-fluorophenyl)-1-(2-hydroxyethyl)-4-(4-pyridinyl)-1H-pyrazol-5-yl]cyclopropanecarboxylic acid]
227 to 228 °C	OCCn1nc(-c2ccc(F)cc2)c(-c2ccncc2)c1-c1cnc[nH]1 [Example A-198, 3-(4-fluorophenyl)-5-(4-imidazolyl)-4-(4-pyridinyl)-1H-pyrazole-1-ethanol]
198.17 °C	Cc1cc(-c2n[nH]cc2-c2ccncc2)ccc1Cl [Example A-199, 4-[3-(4-chloro-3-methylphenyl)-1H-pyrazol-yl]pyridine]
82 to 88 °C	Cc1c(-c2ccncc2)c(-c2ccc(Cl)cc2)nn1C [Example A-204, 4-[3-(4-chlorophenyl)-1,5-dimethyl-1H-pyrazol-4-yl]pyridine]
164.36 °C	CCn1nc(-c2ccc(Cl)cc2)c(-c2ccncc2)c1C [Example A-206, 4-[3-(4-chlorophenyl)-1-ethyl-5-methyl-1H-pyrazol-4-yl]pyridine]
208.46 °C	Clc1ccccc1-c1[nH]ncc1-c1ccncc1 [Example A-209, 4-[3-(2-chlorophenyl)-1H-pyrazol-4-yl]pyridine]

melting point	SMILES
163 to 164 °C	NNc1cc(-c2c[nH]nc2-c2cccc(Cl)c2)ccn1 [Example A-219, 4-[3-(3-chlorophenyl)-1H-pyrazol-4-yl]-2(1H)-pyridinone hydrazone]
179 to 180 °C	Clc1cccc(-c2n[nH]cc2-c2ccnc(NCc3ccccc3)c2)c1 [Example A-220, 4-[3-(3-chlorophenyl)-1H-pyrazol-4-yl]-N-(phenylmethyl)-2-pyridinamine]
185 to 186 °C	Clc1cccc(-c2n[nH]cc2-c2ccnc(NCCc3ccccc3)c2)c1 [Example A-221, 4-[3-(3-chlorophenyl)-1H-pyrazol-4-yl]-N-(phenylethyl)-2-pyridinamine]
186 to 187 °C	CCNc1cc(-c2c[nH]nc2-c2cccc(Cl)c2)ccn1 [Example A-222, 4-[3-(3-chlorophenyl)-1H-pyrazol-4-yl]-N-ethyl-2-pyridinamine]
230 to 231 °C	NC(=O)c1cc(-c2cn[nH]c2-c2ccc(F)cc2)ccn1 [Example A-223, 4-[3-(4-fluorophenyl)-1H-pyrazol-4-yl]-2-pyridinecarboxamide]
239 to 241 °C	COC(=O)c1cc(-c2c[nH]nc2-c2ccc(F)cc2)ccn1 [Example A-224, Methyl 4-[3-(4-fluorophenyl)-1H-pyrazol-4-yl]-2-pyridinecarboxylate]
88 to 89 °C	CNC(=O)c1cc(-c2cn[nH]c2-c2ccc(F)cc2)ccn1 [Example A-225, 4-[3-(4-fluorophenyl)-1H-pyrazol-4-yl]-N-methyl-2-pyridinecarboxamide]
204 to 205 °C	Fc1ccc(-c2n[nH]cc2-c2ccnc(Cl)n2)cc1 [Example A-299, 2-Chloro-4-[3-(4-fluorophenyl)-1H-pyrazol-4-yl]pyrimidine]
149 to 150 °C	NNc1nccc(-c2cn[nH]c2-c2ccc(F)cc2)n1 [Example A-300, 4-[3-(4-fluorophenyl)-1H-pyrazol-4-yl]-2(1H)-pyrimidinone hydrazone]
155 to 156 °C	CN(C)c1nccc(-c2cn[nH]c2-c2ccc(F)cc2)n1 [Example A-301, 4-[3-(4-fluorophenyl)-1H-pyrazol-4-yl]-N,N-dimethyl-2-pyrimidinamine]
217 to 218 °C	CNc1nccc(-c2c[nH]nc2-c2ccc(F)cc2)n1 [Example A-302, 4-[3-(4-fluorophenyl)-1H-pyrazol-4-yl]-N-methyl-2-pyrimidinamine]
216 to 217 °C	Fc1ccc(-c2n[nH]cc2-c2ccnc(NCc3ccccc3)n2)cc1 [Example A-303, 4-[3-(4-fluorophenyl)-1H-pyrazol-4-yl]-N-(phenylmethyl)-2-pyrimidinamine]
203 to 204 °C	Fc1ccc(-c2[nH]ncc2-c2ccnc(NC3CC3)n2)cc1 [Example A-304, N-cyclopropyl-4-[3-(4-fluorophenyl)-1H-pyrazol-4-yl]-2-pyrimidinamine]
183 to 185 °C	COc1ccc(CNc2nccc(-c3cn[nH]c3-c3ccc(F)cc3)n2)cc1 [Example A-305, 4-[3-(4-fluorophenyl)-1H-pyrazol-4-yl]-N-[(4-methoxyphenyl)methyl)-2-pyrimidinamine]
273 to 274 °C	Nc1nccc(-c2cn[nH]c2-c2ccc(F)cc2)n1 [Example A-306, 4-[3-(4-fluorophenyl)-1H-pyrazol-4-yl]-2-pyrimidinamine]
163 to 165 °C	CCOC(=O)Nc1nccc(-c2cn[nH]c2-c2ccc(F)cc2)n1 [Example A-308, Ethyl [4-[3-(4-fluorophenyl)-1H-pyrazol-4-yl]-2-pyrimidinyl]carbamate]
151.67 °C	Cc1cccc(-c2[nH]ncc2-c2ccncn2)c1 [Example A-309, 4-[3-(3-methylphenyl)-1H-pyrazol-4-yl]pyrimidine]
168.58 °C	Fc1cccc(-c2[nH]ncc2-c2ccncn2)c1 [Example A-311, 4-[3-(3-fluorophenyl)-1H-pyrazol-4-yl]pyrimidine]
191.47 °C	Fc1ccc(-c2[nH]ncc2-c2ccncn2)cc1 [Example A-312, 4-[3-(4-fluorophenyl)-1H-pyrazol-4-yl]pyrimidine]
264 to 265 °C	Clc1ccc(-c2[nH]nc(N3CCNCC3)c2-c2ccncc2)cc1 [Example A-328, 1-[5-(4-chlorophenyl)-4-(4-pyridinyl)-1H-pyrazol-3-yl]piperazine]
257.6 to 257.7 °C	O=C(C(=C1SCS1)c1ccncc1)c1ccc(I)cc1 [Example A-401]

SMILES	melting point
CN1CCN(c2n[nH]c(-c3ccc(F)cc3)c2-c2ccncc2)CC1.O.O (hydrate or solvate)	238 to 240 °C
O.O.O=C(O)CCC(=O)N1CCN(c2n[nH]c(-c3ccc(Cl)cc3)c2-c2ccncc2)CC1 (hydrate or solvate) [A-321 (dihydrate), 4-[5-(4-chlorophenyl)-4-(4-pyridinyl)-1H-pyrazol-3-yl]-γ-oxo-1-piperazinebutanoic acid, dihydrate]	281 to 283 °C (dec.)
COC(=O)N1CCN(c2[nH]nc(-c3ccc(Cl)cc3)c2-c2ccncc2)CC1 (hydrate or solvate) [Example A-319, methyl 4-[5-(4-chlorophenyl)-4-(4-pyridinyl)-1H-pyrazol-3-yl]-1-piperazinecarboxylate, monohydrate]	264 to 265 °C
